Results published in US12435059B2, “AMP-activated protein kinase inhibitors and methods of making and using the same” (The Regents of the University of Colorado, priority 2019, dated 2025).
Read-outs that look alike come from different tables or passages of the source. One block for each compound: values may come before it.

What was measured:
AMPKα1 [1] = target: T1, AMPKα1 (Homo sapiens (Human), UniProt Q13131); test: LANCE Eu TR-FRET recombinant kinase assay, AMPK(α1); format: biochemical
Procedure: (§1) Assays were performed at 25° C. in a reaction mixture consisting of 2.5 μL serially diluted inhibitor solution, 2.5 μL kinase, 2.5 μL ATP and 2.5 μL substrate. Reagents were incubated for 1 hr before the reaction was halted through the addition of EDTA (10 mM) after which Eu anti-phospho-CREB (Ser133) antibody (PerkinElmer) was added at a final concentration of 2 nM for 1 hr. […] (n=3)).
Target sequence in this assay (Q13131 whole entry, looked up): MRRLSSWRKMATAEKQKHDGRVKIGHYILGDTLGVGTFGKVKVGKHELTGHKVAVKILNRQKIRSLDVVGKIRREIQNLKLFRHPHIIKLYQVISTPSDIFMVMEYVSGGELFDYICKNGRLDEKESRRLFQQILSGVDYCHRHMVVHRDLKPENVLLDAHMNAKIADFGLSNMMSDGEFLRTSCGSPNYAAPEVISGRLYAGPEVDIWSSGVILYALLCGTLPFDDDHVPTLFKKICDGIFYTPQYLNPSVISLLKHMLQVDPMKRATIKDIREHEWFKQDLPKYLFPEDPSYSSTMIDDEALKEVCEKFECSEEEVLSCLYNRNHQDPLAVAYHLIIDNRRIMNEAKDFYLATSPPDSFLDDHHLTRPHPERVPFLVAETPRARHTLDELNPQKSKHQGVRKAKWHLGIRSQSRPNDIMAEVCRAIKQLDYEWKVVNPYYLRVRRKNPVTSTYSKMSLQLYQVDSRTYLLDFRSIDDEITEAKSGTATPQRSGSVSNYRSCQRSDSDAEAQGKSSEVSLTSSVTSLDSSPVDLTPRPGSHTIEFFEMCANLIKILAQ
Target sequence in this assay (Q9Y478 whole entry partner, looked up): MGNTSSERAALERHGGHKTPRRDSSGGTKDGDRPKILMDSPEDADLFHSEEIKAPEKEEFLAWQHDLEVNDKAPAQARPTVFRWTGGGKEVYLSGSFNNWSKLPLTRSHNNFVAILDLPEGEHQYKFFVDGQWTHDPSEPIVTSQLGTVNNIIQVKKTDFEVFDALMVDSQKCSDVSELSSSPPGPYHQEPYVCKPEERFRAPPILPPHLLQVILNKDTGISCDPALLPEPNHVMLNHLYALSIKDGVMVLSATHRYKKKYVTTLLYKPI
Target sequence in this assay (P54619 whole entry partner, looked up): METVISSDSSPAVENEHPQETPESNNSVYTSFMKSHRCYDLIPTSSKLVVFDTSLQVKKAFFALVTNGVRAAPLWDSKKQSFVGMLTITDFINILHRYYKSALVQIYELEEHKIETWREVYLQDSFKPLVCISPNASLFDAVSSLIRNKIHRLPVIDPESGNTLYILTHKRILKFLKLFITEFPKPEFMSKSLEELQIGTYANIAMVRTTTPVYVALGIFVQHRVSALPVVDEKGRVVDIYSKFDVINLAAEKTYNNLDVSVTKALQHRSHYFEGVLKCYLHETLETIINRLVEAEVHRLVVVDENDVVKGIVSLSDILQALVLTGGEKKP

AMPK(α2) = AMPK(α2) (Homo sapiens (Human), UniProt P54646); test: LANCE Eu TR-FRET recombinant kinase assay, AMPK(α2); format: biochemical
Procedure: as §1

cellular AMPK = test: p-ACC(Ser79) ELISA in K562 cell lysates (glucose-free media, 2-DG); format: cell-based; details: K562, glucose-free media, 2-DG 12 mM, compound 5 μM single dose; relative to DMSO control
Procedure: FIGS. 2A and 2B are a series of graphs showing the effects of compounds of the present disclosure on cellular levels of p-ACC(Ser79) in K562 cells. FIG. 2A Quantitative ELISA determination of p-ACC(Ser79) levels in K562 lysates (1.0 mg mL^−1 total protein) following growth in glucose-free media for 24 h, 2-DG (12 mM) treatment for 1 h followed by treatment with inhibitor compounds at 5.0 μM for 2 h. Relative p-ACC levels are reported as a percentage of levels resultant from DMSO control treatment. […] Cells were collected, washed with PBS and lysed on ice in lysis buffer containing 1% Triton X (Cell Signaling). Lysates were someated (1×5 seconds) and centrifuged for 10 minutes at 10,000 rpm and 4° C., and the protein concentration in supernatants was determined by Lowry assay. Lysates were diluted with ELISA PathScan® sample diluent to a final volume of 100 μL and protein concentration of 1.0 mg/ml prior to use. The concentration of p-ACC (Ser79) was determined using an enzyme-linked immunosorbent assay according to recommended protocol (Cell Signaling, ELISA PathScan® phospho-Acetyl-CoA Carboxylase (Ser79)) and expressed as a relative percentage of the DMSO control.
The AMPK substrate ACC is used as a biomarker for the relative activity of AMPK, and the levels of p-ACC(Ser79) were measured by ELISA in the absence or presence of the compounds to determine the compounds' effects on cellular AMPK activity. The presence of total AMPK, p-AMPK, total ACC, and p-ACC was measured by Western blot in a panel of leukemic cell lines grown in glucoe competent or glucose-free media. […] The cell lysates from K562 cells grown in glucose-free media in the presence 2-DG and treated with compounds of the present disclosure were analyzed by the p-ACC(Ser79) ELISA to determine the effect of the compounds on cellular AMPK activity.

K562 cells [2] = test: MTS cell viability assay in K562 cells; format: cell-based; details: Homo sapiens; K562, RPMI-1640; Table 2 head prints 24 h, method and FIG. 3A legend 72 hours
Procedure: (§2) The cells were incubated with inhibitors for 24 hours, before the plates were equilibrated to room temperature and 100 μL CellTiter-Glo reagent was added. […] Luminescent signal was plotted against the inhibitor log-dose and evaluated by a non-linear regression to determine half-maximal effect concentration (EC50) values, where possible.
An MTS assay was utilized to assess the effect of inhibitors on K562 viability.

K562 cells [3] = test: CellTiter-Glo cell viability assay in K562 cells (glucose-free media); format: cell-based; details: Homo sapiens, read-out: EC50 CellTiter Glo 24 h
Procedure: as §2
(§3) In order to increase the reliance of the cells on AMPK function, assays were needed that could be performed under glucose-free conditions. Therefore in order to elucidate the mechanism of action of the AMPK inhibitors, a CellTiter-Glo cell viability assay (FIG. 3B), which provide a readout proportional to ATP concentration, and thus, cellular viability, as well as a CellTox green cellular toxicity assay (FIG. 3C and FIG. 3D), which contain a dye that fluoresces upon DNA-binding in cells with impraied membrane integrity due to cytotoxicity were performed in K562 cells grown in glucose-free media. The results are summarized in Table 2 (values are the mean±S.D. (n=3)).

K562 cells [4] = test: CellTox green cellular toxicity assay in K562 cells (glucose-free media); format: cell-based; details: for EC50: Homo sapiens
Source text: Fluorescence was plotted against inhibitor log-dose and evaluated by a non-linear regression to determine half-maximal effect concentration (EC50) values, where possible.
as §3

KDR = KDR (Homo sapiens (Human), UniProt P35968); test: LanthaScreen Eu TR-FRET KDR competitive binding assay; details: read-out: IC50 (nM) KDR; mean±S.D. (n=3); competitive binding
AMPKα1 [5] = target: T1, AMPKα1; details: purified AMPK protein; read-out: AMPKα1 IC50, 32P radioactivity assay; cited from earlier work
Target sequence in this assay (Q13131 whole entry): as the sequence (Q13131 whole entry, looked up) above
Target sequence in this assay (Q9Y478 whole entry partner): as the sequence (Q9Y478 whole entry partner, looked up) above
Target sequence in this assay (P54619 whole entry partner): as the sequence (P54619 whole entry partner, looked up) above

468 kinases = 468 kinases (Homo sapiens, UniProt Q14004); test: biochemical; format: binding; details: read-out: % Inhibition @ 100 nM, CDC2L5
BTK = BTK (Homo sapiens (Human), UniProt Q06187); test: Kinome binding analysis at 100 nM, BTK
[6] = read-out: EC50 CellTox Green 48 h, 48 h

Sequence of AMPK(α2) (P54646 whole entry, looked up): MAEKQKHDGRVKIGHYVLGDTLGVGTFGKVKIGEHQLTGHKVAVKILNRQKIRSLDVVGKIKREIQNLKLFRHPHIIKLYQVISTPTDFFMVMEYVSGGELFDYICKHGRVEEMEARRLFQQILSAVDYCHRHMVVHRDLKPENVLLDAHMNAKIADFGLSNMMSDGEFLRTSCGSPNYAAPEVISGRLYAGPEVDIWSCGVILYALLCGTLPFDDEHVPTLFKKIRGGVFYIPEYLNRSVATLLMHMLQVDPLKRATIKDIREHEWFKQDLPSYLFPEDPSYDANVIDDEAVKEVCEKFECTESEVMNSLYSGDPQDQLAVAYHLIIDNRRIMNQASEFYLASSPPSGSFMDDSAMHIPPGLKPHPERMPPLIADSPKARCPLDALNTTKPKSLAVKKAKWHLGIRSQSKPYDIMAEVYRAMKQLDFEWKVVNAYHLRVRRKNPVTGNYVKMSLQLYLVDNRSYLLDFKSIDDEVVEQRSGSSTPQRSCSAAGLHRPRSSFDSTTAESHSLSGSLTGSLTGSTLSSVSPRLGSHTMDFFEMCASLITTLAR
Sequence of AMPK(α2) (Q9Y478 whole entry partner, looked up): as the sequence (Q9Y478 whole entry partner, looked up) above
Sequence of AMPK(α2) (P54619 whole entry partner, looked up): as the sequence (P54619 whole entry partner, looked up) above
Sequence of BTK (Q06187 whole entry): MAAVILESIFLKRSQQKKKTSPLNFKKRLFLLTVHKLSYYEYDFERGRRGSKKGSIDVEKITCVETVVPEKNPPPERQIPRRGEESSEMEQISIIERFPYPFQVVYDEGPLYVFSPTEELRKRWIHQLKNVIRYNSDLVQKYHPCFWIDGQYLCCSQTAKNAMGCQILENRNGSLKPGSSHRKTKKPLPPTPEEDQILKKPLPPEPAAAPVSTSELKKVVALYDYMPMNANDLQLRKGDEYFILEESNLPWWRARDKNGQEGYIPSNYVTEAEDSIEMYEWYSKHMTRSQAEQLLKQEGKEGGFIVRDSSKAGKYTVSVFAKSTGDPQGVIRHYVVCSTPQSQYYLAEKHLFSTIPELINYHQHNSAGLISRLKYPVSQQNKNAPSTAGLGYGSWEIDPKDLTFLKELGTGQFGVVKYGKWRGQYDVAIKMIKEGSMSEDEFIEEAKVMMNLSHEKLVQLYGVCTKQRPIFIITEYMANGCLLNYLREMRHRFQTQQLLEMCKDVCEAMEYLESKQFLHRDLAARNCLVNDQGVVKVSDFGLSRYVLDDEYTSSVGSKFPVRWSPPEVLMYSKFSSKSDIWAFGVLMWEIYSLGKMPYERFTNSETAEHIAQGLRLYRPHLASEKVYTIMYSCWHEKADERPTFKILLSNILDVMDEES
Sequence of KDR (P35968 20-1356): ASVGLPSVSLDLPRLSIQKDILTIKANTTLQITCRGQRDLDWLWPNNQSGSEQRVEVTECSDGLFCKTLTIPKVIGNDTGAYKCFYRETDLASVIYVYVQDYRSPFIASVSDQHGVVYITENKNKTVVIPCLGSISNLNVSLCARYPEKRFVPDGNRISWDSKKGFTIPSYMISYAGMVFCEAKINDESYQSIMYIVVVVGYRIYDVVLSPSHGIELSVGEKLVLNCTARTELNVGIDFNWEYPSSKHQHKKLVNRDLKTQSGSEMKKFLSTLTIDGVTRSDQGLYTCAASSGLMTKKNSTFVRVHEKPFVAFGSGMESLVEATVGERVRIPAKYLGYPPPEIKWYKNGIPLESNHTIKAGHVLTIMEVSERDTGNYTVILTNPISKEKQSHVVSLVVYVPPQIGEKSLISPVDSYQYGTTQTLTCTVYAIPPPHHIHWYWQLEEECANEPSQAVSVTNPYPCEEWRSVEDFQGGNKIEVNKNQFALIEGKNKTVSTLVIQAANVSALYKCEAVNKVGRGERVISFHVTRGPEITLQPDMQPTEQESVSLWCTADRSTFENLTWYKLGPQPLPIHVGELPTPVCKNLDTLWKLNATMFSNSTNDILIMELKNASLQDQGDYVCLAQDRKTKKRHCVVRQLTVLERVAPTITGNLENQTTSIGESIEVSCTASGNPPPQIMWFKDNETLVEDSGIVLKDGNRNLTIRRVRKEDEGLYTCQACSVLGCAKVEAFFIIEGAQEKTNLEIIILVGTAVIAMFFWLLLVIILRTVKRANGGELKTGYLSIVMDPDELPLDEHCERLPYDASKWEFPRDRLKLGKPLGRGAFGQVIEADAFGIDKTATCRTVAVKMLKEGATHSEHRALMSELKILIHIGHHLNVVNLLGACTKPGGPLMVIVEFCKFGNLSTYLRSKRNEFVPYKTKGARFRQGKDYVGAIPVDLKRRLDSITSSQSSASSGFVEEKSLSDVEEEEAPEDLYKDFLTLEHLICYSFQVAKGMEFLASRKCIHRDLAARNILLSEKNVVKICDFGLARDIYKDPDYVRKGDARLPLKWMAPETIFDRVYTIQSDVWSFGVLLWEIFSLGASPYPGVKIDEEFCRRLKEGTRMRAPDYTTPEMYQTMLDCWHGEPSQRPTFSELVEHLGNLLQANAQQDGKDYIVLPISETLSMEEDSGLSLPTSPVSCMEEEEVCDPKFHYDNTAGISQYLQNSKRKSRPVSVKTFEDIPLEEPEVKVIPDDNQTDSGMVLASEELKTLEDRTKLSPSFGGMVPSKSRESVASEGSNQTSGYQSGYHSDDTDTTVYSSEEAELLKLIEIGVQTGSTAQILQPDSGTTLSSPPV

AMPK(α1) % inhibition at 20 μM (AMPKα1 [1]; at 20 μM): 40%
AMPK(α2) % inhibition at 10 μM (AMPK(α2); at 10 μM): 17%
EC50 (K562 cells [2]): 6.79 ± 0.15 µM
EC50 (K562 cells [3]): 11.8 ± 0.78 µM
SMILES: CCN(CC)CCNC(=O)c1c(C)[nH]c(/C=C2\C(=O)N(C)c3ccc(F)cc32)c1C [Compound No. 1, (Z)—N-(2-(Diethylamino)ethyl)-5-((5-fluoro-1-methyl-2-oxoindolin-3-ylidene)methyl)-2,4-dimethyl-1H-pyrrole-3-carboxamide]
Relative p-ACC(Ser79) level (cellular AMPK): 97.1 % of control
EC50 (K562 cells [4]; read-out: EC50 CellTox Green 24 h, 24 h): 12.1 ± 0.91 µM
EC50 (K562 cells [4]; [6]): 6.91 ± 0.06 µM

IC50 (AMPKα1 [1]; mean±S.D. (n=3), ATP 8 μM, read-out: IC50 (nM) AMPK(α1)): 164 ± 10 nM
IC50 (AMPK(α2); mean±S.D. (n=3), ATP 20 μM): 32.4 ± 7.8 nM
EC50 (K562 cells [2]): 14.8 ± 0.22 µM
EC50 (K562 cells [3]): 17.8 ± 0.78 µM
IC50 (KDR): 1330 ± 140 nM
SMILES: CCN(CC)CCNC(=O)c1c(C)[nH]c(/C=C2\C(=O)Nc3ccc(CCC#N)cc32)c1C [Compound No. 15, (Z)-5-((5-(2-cyanoethyl)-2-oxoindolin-3-ylidene)methyl)-N-(2-(diethylamino)ethyl)-2,4-dimethyl-1H-pyrrole-3-carboxamide]
Relative p-ACC(Ser79) level (cellular AMPK): 34.1 % of control
EC50 (K562 cells [4]; [6]): 13.6 ± 1.07 µM

SMILES: CNC(=O)c1ccccc1Oc1nc(Nc2cc(OC)c(OC)c(OC)c2)ncc1Br [SBI-0206965]
IC50 (AMPKα1 [5]): 400 nM

inhibition at 0.1 µM (468 kinases): 49%
BTK inhibition, in words (BTK; 100 nM): strongly inhibited
inhibition at 0.1 µM (BTK; read-out: Percentage inhibition at 100 nM, BTK): 91.3%
SMILES: CCN(CC)CCNC(=O)c1c(C)[nH]c(/C=C2\C(=O)Nc3ccc(F)cc32)c1C [Sunitinib, (Z)—N-(2-(Diethylamino)ethyl)-5-((5-fluoro-2-oxoindolin-3-ylidene)methyl)-2,4-dimethyl-1H-pyrrole-3-carboxamide, reference compound]
CellTox Green 24 h % inhibition at 50 μM (K562 cells [4]; 24 h, at 50 μM): 61% at 50 μM
